≈ marks a conversion by molar mass, not a printed value.
Assays:
[1] = target: Epidermal growth factor receptor (Homo sapiens, UniProt P00533, L858R/T790M)
physchem = settings: buffer, pH 7.4, logD
Description: (§1) Lipophilicity, log D of the compound at pH 7.4 by microscale shake flask method

[2] = target: T1, Epidermal growth factor receptor (Homo sapiens, UniProt P00533)
NCI-H1975 = assay: Antiproliferative activity against human NCI-H1975 cells expressing EGFR T790M/L858R double mutant after 72 hrs by luminescence assay; type: functional, cell-based; settings: NCI-H1975, 72 h
[3] = target: T2, Epidermal growth factor receptor (Homo sapiens, UniProt P00533, 746-750DEL/T790M); assay: Inhibition of EGFR T790M/del (746 to 750) deletion mutant phosphorylation in erlotinib-resistant human PC9 cells preincubated for 1 hr followed by stimulation with EGF for 8 mins by electrochemiluminescent immunoassay; type: cell-based, PC-9
Liver microsome [4] = assay: Drug metabolism in rat liver microsomes assessed as cis-3-Fluoro-1-{4-[2-((R)-1-hydroxyethyl)-1-((S)-2,2,2-trifluoro-1-methylethyl)-1Himidazo[4,5-c]pyridin-6-ylamino]pyrimidin-2-yl}piperidin-4-ol; type: ADME
[5] = Volume of distribution at steady state in rat; type: ADME, organism-based; settings: in vivo, read-out: Vdss
[6] = Antiproliferative activity against erlotinib-resistant human PC9 cells expressing EGFR with ex19del and T790M mutations after 72 hrs by luminescence assay; type: functional, cell-based; settings: PC-9, 72 h
Hepatocyte [7] = assay: Drug metabolism in rat hepatocytes assessed as cis-3-Fluoro-1-{4-[2-((R)-1-hydroxyethyl)-1-((S)-2,2,2-trifluoro-1-methylethyl)-1Himidazo[4,5-c]pyridin-6-ylamino]pyrimidin-2-yl}piperidin-4-ol; type: ADME, cell-based
[8] = target: T1, Epidermal growth factor receptor; remark: listed apart in the source
Description: Inhibition of EGFR phosphorylation in human NCI-H292 cells preincubated for 1 hr followed by stimulation with EGF for 8 mins by electrochemiluminescent immunoassay

[9] = target: T2, Epidermal growth factor receptor; assay: Inhibition of human EGFR T790M/del (746 to 750) deletion mutant using Fl-EEPLYWSFPAKKK-CONH2 as substrate preincubated for 30 mins followed by addition of substrate measured after 30 mins by Morrison plot analysis; type: protein assay; settings: read-out: Ki(app)
[10] = Half life in rat; type: ADME, organism-based; settings: in vivo
[11] = Oral bioavailability in rat; type: ADME, organism-based; settings: in vivo
[12] = Plasma clearance in rat at 5 mg/kg, iv; type: ADME, organism-based
NCI-H292 = assay: Antiproliferative activity against human NCI-H292 cells expressing wild type EGFR after 72 hrs by luminescence assay; type: functional, cell-based; settings: NCI-H292, 72 h
Rattus norvegicus [13] = assay: Unbound plasma clearance in rat at 5 mg/kg, iv; type: ADME, organism-based; settings: in vivo
Liver microsome [14] = assay: Stability in human liver microsomes; type: ADME
Hepatocyte [15] = assay: Stability in human hepatocytes; type: ADME, cell-based
Rattus norvegicus [16] = assay: Unbound plasma clearance in rat at 0.5 mg/kg, iv; type: ADME, organism-based; settings: in vivo
[17] = Plasma clearance in rat at 0.5 mg/kg, iv; type: ADME, organism-based
Homo sapiens = species on record: Homo sapiens; assay: Selectivity ratio of Ki for human wild type EGFR to Ki for human EGFR T790M/L858R double mutant
[18] = Apparent permeability from apical to basolateral side in MDCK cells; type: ADME, cell-based, Canis lupus familiaris; settings: dog
[19] = Kinetic solubility of compound in PBS at pH 7.4 at 100 uM after 24 hrs; type: physicochemical; settings: read-out: Kinetic_solubility
[20] = Oral bioavailability in rat at 10 mg/kg; type: ADME, organism-based; settings: in vivo
[21] = Chemical stability under acidic conditions assessed as amide hydrolysis to acid form; type: physicochemical
[22] = Plasma clearance in rat at 1 mg/kg, iv; type: ADME, organism-based
Rattus norvegicus [23] = assay: Unbound plasma clearance in rat at 1 mg/kg, iv; type: ADME, organism-based; settings: in vivo
[24] = buffer, pH 7.4
Description: as §1

Chain of Epidermal growth factor receptor (Homo sapiens, UniProt P00533, L858R/T790M) (P00533 25-1210 T790M/L858R limits assumed): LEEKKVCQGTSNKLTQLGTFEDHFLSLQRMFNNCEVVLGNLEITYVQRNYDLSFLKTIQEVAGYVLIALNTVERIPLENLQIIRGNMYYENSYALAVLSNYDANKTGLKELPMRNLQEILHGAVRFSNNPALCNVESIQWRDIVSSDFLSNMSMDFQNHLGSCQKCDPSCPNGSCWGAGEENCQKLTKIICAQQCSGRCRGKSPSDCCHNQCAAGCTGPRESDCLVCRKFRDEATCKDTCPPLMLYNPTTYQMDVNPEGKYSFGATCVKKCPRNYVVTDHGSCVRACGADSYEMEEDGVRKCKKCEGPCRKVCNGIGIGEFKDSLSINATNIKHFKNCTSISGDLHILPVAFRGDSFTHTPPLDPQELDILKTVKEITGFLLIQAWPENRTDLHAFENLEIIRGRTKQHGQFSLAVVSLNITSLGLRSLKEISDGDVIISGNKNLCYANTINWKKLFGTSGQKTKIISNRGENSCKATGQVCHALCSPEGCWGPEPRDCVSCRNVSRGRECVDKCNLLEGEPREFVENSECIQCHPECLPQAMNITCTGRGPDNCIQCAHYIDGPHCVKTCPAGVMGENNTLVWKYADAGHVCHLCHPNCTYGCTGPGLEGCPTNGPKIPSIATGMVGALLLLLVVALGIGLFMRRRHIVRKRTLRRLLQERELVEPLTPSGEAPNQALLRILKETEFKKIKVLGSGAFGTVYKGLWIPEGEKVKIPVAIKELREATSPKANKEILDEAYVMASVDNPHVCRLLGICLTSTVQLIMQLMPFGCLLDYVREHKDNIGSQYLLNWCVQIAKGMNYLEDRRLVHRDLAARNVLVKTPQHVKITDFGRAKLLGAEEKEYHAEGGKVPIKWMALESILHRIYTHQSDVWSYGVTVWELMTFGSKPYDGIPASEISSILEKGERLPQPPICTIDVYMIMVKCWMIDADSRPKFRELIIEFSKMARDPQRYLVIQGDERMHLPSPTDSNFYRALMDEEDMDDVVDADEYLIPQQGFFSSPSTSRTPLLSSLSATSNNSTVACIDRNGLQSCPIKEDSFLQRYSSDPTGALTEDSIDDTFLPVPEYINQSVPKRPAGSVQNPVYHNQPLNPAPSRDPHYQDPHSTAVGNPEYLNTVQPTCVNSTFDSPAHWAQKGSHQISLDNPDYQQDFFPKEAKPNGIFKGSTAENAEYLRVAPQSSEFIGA
T1 sequence (P00533 whole entry): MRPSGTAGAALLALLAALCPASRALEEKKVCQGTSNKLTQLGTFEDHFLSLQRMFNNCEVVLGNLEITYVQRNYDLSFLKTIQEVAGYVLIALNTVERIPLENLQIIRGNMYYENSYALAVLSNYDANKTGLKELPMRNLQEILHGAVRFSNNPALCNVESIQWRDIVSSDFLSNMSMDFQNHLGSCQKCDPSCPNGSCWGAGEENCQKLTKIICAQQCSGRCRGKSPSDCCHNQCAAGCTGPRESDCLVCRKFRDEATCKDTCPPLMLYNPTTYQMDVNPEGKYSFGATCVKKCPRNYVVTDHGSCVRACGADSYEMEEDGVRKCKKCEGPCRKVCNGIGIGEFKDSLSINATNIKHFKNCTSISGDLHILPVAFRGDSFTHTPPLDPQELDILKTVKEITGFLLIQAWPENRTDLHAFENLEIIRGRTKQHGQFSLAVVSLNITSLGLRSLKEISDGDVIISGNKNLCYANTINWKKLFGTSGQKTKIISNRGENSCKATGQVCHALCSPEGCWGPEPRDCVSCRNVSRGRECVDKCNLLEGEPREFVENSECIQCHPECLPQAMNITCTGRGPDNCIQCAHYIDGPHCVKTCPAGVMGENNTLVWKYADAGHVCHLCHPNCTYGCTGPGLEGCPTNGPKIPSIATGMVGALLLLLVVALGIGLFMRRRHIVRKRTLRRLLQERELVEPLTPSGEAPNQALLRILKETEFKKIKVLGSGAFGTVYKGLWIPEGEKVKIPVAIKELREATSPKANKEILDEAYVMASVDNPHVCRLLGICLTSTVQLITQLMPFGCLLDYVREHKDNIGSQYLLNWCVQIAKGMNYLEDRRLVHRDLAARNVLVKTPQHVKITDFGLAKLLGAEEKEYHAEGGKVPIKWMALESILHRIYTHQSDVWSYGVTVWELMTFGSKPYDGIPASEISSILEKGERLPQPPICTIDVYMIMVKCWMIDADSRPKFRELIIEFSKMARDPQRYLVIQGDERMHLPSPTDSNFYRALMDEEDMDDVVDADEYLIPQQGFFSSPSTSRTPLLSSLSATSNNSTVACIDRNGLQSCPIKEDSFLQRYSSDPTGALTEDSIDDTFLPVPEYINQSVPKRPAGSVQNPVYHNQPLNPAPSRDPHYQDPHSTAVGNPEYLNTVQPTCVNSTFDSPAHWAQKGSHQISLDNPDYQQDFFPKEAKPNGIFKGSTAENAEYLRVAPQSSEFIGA
T2 sequence (P00533 whole entry, looked up, stated change not applied): as the sequence (P00533 whole entry) above

SMILES	Ki [1] [nM]	logD (physchem)	Ki [2] [nM]	other results
CCn1cnc2cnc(Nc3ccnc(N4CCC(OC)CC4)n3)cc21	201	2.4	–	–
COC1CCN(c2nccc(Nc3cc4c(cn3)ncn4C(C)C(F)(F)F)n2)CC1 (racemic)	27	2.7	–	–
COC1CCN(c2nccc(Nc3cc4c(cn3)ncn4C3CCCC3)n2)CC1	–	2.9	–	–
COC1CCN(c2nccc(Nc3cc4c(cn3)ncn4C3CCC3)n2)CC1	48	2.8	–	–
COC1CCN(c2nccc(Nc3cc4[nH]cnc4cn3)n2)CC1	–	1.9	1200	EC50 (NCI-H1975): 7000 nM
COC1CCN(c2nccc(Nc3cc4c(cn3)ncn4C3CCOCC3)n2)CC1	76	2.1	–	–
COC1CCN(c2nccc(Nc3cc4c(cn3)ncn4C3CCOC3)n2)CC1 (racemic)	149	1.8	–	–
Cc1nc2cnc(Nc3ccnc(N4CCC(S(C)(=O)=O)CC4)n3)cc2n1C(C)C	64	1.6	–	Stability (Liver microsome [14]): Stable; Stability (Hepatocyte [15]): Stable; CL free (Rattus norvegicus [16]): 934 mL/min/kg; clearance [17]: 165 mL/min/kg
CO[C@H]1CCN(c2nccc(Nc3cc4c(cn3)nc(CO)n4C(C)C)n2)CC1(F)F (racemic)	–	2.8	–	EC50 (NCI-H1975): 2380 nM
COC1CCN(c2nccc(Nc3cc4c(cn3)ncn4CC(F)(F)F)n2)CC1	71	2.8	–	–
COC1CCN(c2nccc(Nc3cc4c(cn3)ncn4C3CCCCC3)n2)CC1	18	3.4	–	–
Cc1nc2cnc(Nc3ccnc(NCC(C)(C)S(C)(=O)=O)n3)cc2n1C(C)C	–	1.4	1820	clearance [22]: 158 mL/min/kg; Stability (Liver microsome [14]): Stable; Stability (Hepatocyte [15]): Stable; CL free (Rattus norvegicus [23]): 707 mL/min/kg
CO[C@H]1CCN(c2nccc(Nc3cc4c(cn3)nc(CO)n4C(C)C)n2)C[C@@H]1F (racemic)	57	–	540	–
COC1(CN(C)C)CCN(c2nccc(Nc3cc4c(cn3)nc(C)n4C(C)C)n2)CC1	492	1.5	–	–
Cc1nc2cnc(Nc3ccnc(N4CCC(O)CC4)n3)cc2n1C(C)C	34	1.8	–	Stability (Hepatocyte [15]): Unstable
COC1(CO)CCN(c2nccc(Nc3cc4c(cn3)nc(C)n4C(C)C)n2)CC1	24	1.7	–	Stability (Liver microsome [14]): Stable
CC(C)n1c(CO)nc2cnc(Nc3ccnc(N4CC[C@H](O)[C@H](F)C4)n3)cc21 (racemic)	16	1.6	> 0.53	CL free (Rattus norvegicus [16]): 382 mL/min/kg; clearance [17]: 151 mL/min/kg; IC50 [8]: > 10 µM; EC50 (NCI-H1975): > 10000 nM
Cc1nc2cnc(Nc3ccnc(OCC(C)(C)S(C)(=O)=O)n3)cc2n1C(C)C	52	1.6	2100	Stability (Liver microsome [14]): Stable; Stability (Hepatocyte [15]): Stable; CL free (Rattus norvegicus [16]): 156 mL/min/kg; clearance [17]: 53 mL/min/kg

Further lines, with some results ahead:

Ki [1] [nM]	logD (physchem)	Ki [2] [nM]	SMILES	other results
1.1	2.2	122	CO[C@H]1CCN(c2nccc(Nc3cc4c(cn3)nc([C@@H](C)O)n4[C@H](C)C(F)(F)F)n2)C[C@H]1F	IC50 [3]: 27 nM; Drug metabolism (Liver microsome [4]): metabolite_detected; Vd [5]: 3.7 L/kg; EC50 [6]: 90 nM; Drug metabolism (Hepatocyte [7]): metabolite_detected; IC50 [8]: > 10 µM; Ki [9]: 7 nM; half-life [10]: 102 min; bioavailability [11]: 85%; clearance [12]: 23 mL/min/kg; EC50 (NCI-H292): 7.8 µM; CL free (Rattus norvegicus [13]): 334 mL/min/kg; EC50 (NCI-H1975): 112 nM
124	1.6	681	Cc1nc2cnc(Nc3ccnc(N4CCC(C)(C(N)=O)C4)n3)cc2n1C(C)C (stereo unspecified)	Stability (Liver microsome [14]): Stable; Stability (Hepatocyte [15]): Stable
–	2	> 2500	Cc1nc2cnc(Nc3ccnc(/C=C/C(C)(C)O)n3)cc2n1C(C)C	CL free (Rattus norvegicus [16]): 200 mL/min/kg; clearance [17]: 50 mL/min/kg
19	2.4	875	COC1CCN(c2nccc(Nc3cc4c(cn3)nc(C)n4C(C)C)n2)CC1	Ratio Ki (Homo sapiens): 46; Stability (Hepatocyte [15]): Stable; Papp A→B [18]: 29 ×10⁻⁶ cm/s; solubility kinetic at 24 h, 100 µM [19]: 87 µM (≈ 33.2 µg/mL); IC50 [8]: > 10 µM; bioavailability [20]: 30%; clearance [12]: 40 mL/min/kg; CL free (Rattus norvegicus [13]): 620 mL/min/kg; EC50 (NCI-H1975): 6700 nM
77	2.4	–	COCC1(OC)CCN(c2nccc(Nc3cc4c(cn3)nc(C)n4C(C)C)n2)CC1	–
9.5	2.6	> 403	Cc1nc2cnc(Nc3ccnc(N4CC[C@H](O)C(F)(F)C4)n3)cc2n1C(C)C (racemic)	IC50 [8]: > 10 µM; EC50 (NCI-H1975): 1700 nM
658	1.9	> 2500	Cc1nc2cnc(Nc3ccnc(SCC(C)(C)C(N)=O)n3)cc2n1C(C)C	–
196	2.2	> 1500	Cc1nc2cnc(Nc3ccnc(/C=C/C(C)(C)C(N)=O)n3)cc2n1C(C)C	Stability (Liver microsome [14]): Stable; Stability (Hepatocyte [15]): Stable
19	2.3	400	COC1CCN(c2nccc(Nc3cc4c(cn3)nc(CO)n4C(C)C)n2)CC1	EC50 (NCI-H1975): 6500 nM
22	1.5	390	Cc1nc2cnc(Nc3ccnc(NCC(C)(C)C(N)=O)n3)cc2n1C(C)C	CL free (Rattus norvegicus [16]): 909 mL/min/kg; clearance [17]: 250 mL/min/kg; Stability [21]: Unstable
87	2.3	–	COC1CCN(c2nccc(Nc3cc4c(cn3)ncn4C3CC3)n2)CC1	–
44	2.5	1840	CO[C@H]1CCN(c2nccc(Nc3cc4c(cn3)nc(C)n4C(C)C)n2)C[C@@H]1F (racemic)	–
2.7	2.3	1080	CO[C@H]1CCN(c2nccc(Nc3cc4c(cn3)nc(C)n4C(C)C)n2)C[C@H]1F (racemic)	IC50 [8]: > 10 µM; EC50 (NCI-H1975): 560 nM
22	–	–	CCC(C)n1cnc2cnc(Nc3ccnc(N4CCC(OC)CC4)n3)cc21 (racemic; form 3)	–
13	1.5	910	Cc1nc2cnc(Nc3ccnc(N4CC[C@H](O)[C@H](F)C4)n3)cc2n1C(C)C (racemic)	clearance [12]: 90 mL/min/kg; CL free (Rattus norvegicus [13]): 545 mL/min/kg; EC50 (NCI-H1975): 1600 nM
151	1.7	–	CC(C)n1cnc2cnc(Nc3ccnc(N4CCC(C(N)=O)CC4)n3)cc21	–
–	0.1	–	COC1(CCN)CCN(c2nccc(Nc3cc4c(cn3)nc(C)n4C(C)C)n2)CC1	Stability (Liver microsome [14]): Stable
17	–	–	CCC(C)n1cnc2cnc(Nc3ccnc(N4CCC(OC)CC4)n3)cc21 (racemic; form 2)	logD [24]: 2.9
4.3	–	150	CO[C@H]1CCN(c2nccc(Nc3cc4c(cn3)nc(CO)n4C(C)C)n2)C[C@H]1F (racemic)	clearance [22]: 107 mL/min/kg; CL free (Rattus norvegicus [23]): 584 mL/min/kg; IC50 [8]: > 10 µM; EC50 (NCI-H1975): 880 nM
50	2	–	COC1(CCO)CCN(c2nccc(Nc3cc4c(cn3)nc(C)n4C(C)C)n2)CC1	–
14	2.8	–	CCC(C)n1cnc2cnc(Nc3ccnc(N4CCC(OC)CC4)n3)cc21 (racemic; form 1)	–

From ChEMBL document CHEMBL3734664, “Noncovalent Mutant Selective Epidermal Growth Factor Receptor Inhibitors: A Lead Optimization Case Study” (J Med Chem, 2015)
